Data set [1] has as its system Rattus norvegicus. Description: Toxicity in Rattus norvegicus Wistar albino (rat) assessed as change in glycosylated hemoglobin of total hemoglobin at 20 mg/kg, po administered via intragastric tube for 45 days (reference value: 0.52 +/-0.03 % ). On the set-up: dose 20 mg/kg, route oral. As to conditions: in vivo, 1080 h. The class given is organism-based.
In data set [2] the test system is Rattus norvegicus. Description: Hepatotoxicity in Rattus norvegicus Wistar albino (rat) assessed as change in plasma ALT level at 20 mg/kg, po administered via intragastric tube for 45 days (reference value: 56.72 +/-5.2 ug/dl). It counts as toxicity, organism-based. On the set-up: dose 20 mg/kg, route oral. The settings on record: in vivo, 1080 h.
Data set [3] concerns Rattus norvegicus. The experiment in a line: Nephrotoxicity in Rattus norvegicus Wistar albino (rat) assessed as change in creatinine level in serum at 20 mg/kg, po administered via intragastric tube for 45 days (reference value: 1.62 +/- 0.2 mg/dl ). It counts as toxicity, organism-based. On the set-up: dose 20 mg/kg, route oral. The settings on record: in vivo, 1080 h.
Data set [4] has as its system Rattus norvegicus. The experiment in a line: Toxicity in Rattus norvegicus Wistar albino (rat) assessed as change in body weight at 20 mg/kg, po administered via intragastric tube for 45 days (reference value: 238.2 +/-7.3 g). The settings on record: in vivo, 1080 h. On the set-up: dose 20 mg/kg, route oral. The class given is organism-based.
Data set [5] deals with Rattus norvegicus. Description: Toxicity in Rattus norvegicus Wistar albino (rat) assessed as change in hemoglobin level at 20 mg/kg, po administered via intragastric tube for 45 days (reference value: 15.12 +/-1.3 mg/dl ). The class given is organism-based. On the set-up: dose 20 mg/kg, route oral. The settings on record: in vivo, 1080 h.
The test system of data set [6] is Rattus norvegicus. Description: Hepatotoxicity in Rattus norvegicus Wistar albino (rat) assessed as change in plasma AST level at 20 mg/kg, po administered via intragastric tube for 45 days (reference value: 39.6 +/-3.3 ug/dl). It counts as toxicity, organism-based. On the set-up: dose 20 mg/kg, route oral. As to conditions: in vivo, 1080 h.
In data set [7] the test system is Rattus norvegicus. The experiment in a line: Toxicity in Rattus norvegicus Wistar albino (rat) assessed as serum HDL level at 20 mg/kg, po administered via intragastric tube for 45 days (Rvb =65.21 +/-6.9 mg/dl). The class given is organism-based. On the set-up: dose 20 mg/kg, route oral. The settings on record: in vivo, 1080 h.
For data set [8], the system named is Rattus norvegicus. Description: Toxicity in Rattus norvegicus Wistar albino (rat) assessed as serum cholesterol level at 20 mg/kg, po administered via intragastric tube for 45 days (reference value: 97.72 +/-7.3 mg/dl). It counts as organism-based. On the set-up: dose 20 mg/kg, route oral. As to conditions: in vivo, 1080 h.
For data set [9], the system named is Rattus norvegicus. Description: Nephrotoxicity in Rattus norvegicus Wistar albino (rat) assessed as change in serum total protein level at 20 mg/kg, po administered via intragastric tube for 45 days (reference value: 8.12 +/- 1.0 g/dl ). As to conditions: in vivo, 1080 h. The class given is toxicity, organism-based. On the set-up: dose 20 mg/kg, route oral.
Data set [10] relates to Rattus norvegicus. Description: Hepatotoxicity in Rattus norvegicus Wistar albino (rat) assessed as change in plasma ALP level at 20 mg/kg, po administered via intragastric tube for 45 days (reference value: 49.99+/-4.7 ug/dl). It counts as toxicity, organism-based. On the set-up: dose 20 mg/kg, route oral. As to conditions: in vivo, 1080 h.
Data set [11] concerns Rattus norvegicus. Description: Nephrotoxicity in Rattus norvegicus Wistar albino (rat) assessed as change in urea level in serum at 20 mg/kg, po administered via intragastric tube for 45 days (reference value: 24.12 +/- 2.3 mg/dl ). It counts as toxicity, organism-based. On the set-up: dose 20 mg/kg, route oral. The settings on record: in vivo, 1080 h.
The test system of data set [12] is Rattus norvegicus. Description: Hepatotoxicity in Rattus norvegicus Wistar albino (rat) assessed as change in plasma ACP level at 20 mg/kg, po administered via intragastric tube for 45 days (reference value: 9.97+/-1.1 ug/dl). As to conditions: in vivo, 1080 h. On the set-up: dose 20 mg/kg, route oral. It counts as toxicity, organism-based.
The subject of data set [13] is Rattus norvegicus. Description: Toxicity in Rattus norvegicus Wistar albino (rat) assessed as serum triglyceride level at 20 mg/kg, po administered via intragastric tube for 45 days (Rvb =17.72 +/-1.3 mg/dl). It counts as organism-based. On the set-up: dose 20 mg/kg, route oral. The settings on record: in vivo, 1080 h.
The subject of data set [14] is Rattus norvegicus. Description: Nephrotoxicity in Rattus norvegicus Wistar albino (rat) assessed as change in uric acid level in serum at 20 mg/kg, po administered via intragastric tube for 45 days (reference value: 0.96 +/- 0.93 mg/dl ). The settings on record: in vivo, 1080 h. The class given is toxicity, organism-based. On the set-up: dose 20 mg/kg, route oral.

Data set [15] has as its system Rattus norvegicus. The experiment in a line: Antidiabetic activity against STZ-induced diabetic Rattus norvegicus Wistar albino (rat) assessed as serum HDL level at 20 mg/kg, po administered via intragastric tube for 45 days (reference value: 25.8 +/-1.6 mg/dl). The class given is functional.
In data set [16] the test system is Rattus norvegicus. Description: Nephroprotective activity in STZ-induced diabetic Rattus norvegicus Wistar albino (rat) assessed as change in serum total protein level at 20 mg/kg, po administered via intragastric tube for 45 days (reference value: 3.7 +/-0.9 g/dl). It counts as functional.
Data set [17] relates to Rattus norvegicus. Description: Nephroprotective activity in STZ-induced diabetic Rattus norvegicus Wistar albino (rat) assessed as change in serum uric acid level at 20 mg/kg, po administered via intragastric tube for 45 days (reference value: 1.5 +/-0.9 mg/dl). The class given is functional.
The subject of data set [18] is Rattus norvegicus. Description: Antidiabetic activity against STZ-induced diabetic Rattus norvegicus Wistar albino (rat) assessed as change in body weight at 20 mg/kg, po administered via intragastric tube for 45 days (reference value: 243.67 +/-8.9 g). It counts as functional.
Data set [19] deals with Rattus norvegicus. The experiment in a line: Nephroprotective activity in STZ-induced diabetic Rattus norvegicus Wistar albino (rat) assessed as change in serum urea level at 20 mg/kg, po administered via intragastric tube for 45 days (reference value: 41.5 +/-4.9 mg/dl). The class given is functional.
The subject of data set [20] is Rattus norvegicus. Description: Antidiabetic activity against STZ-induced diabetic Rattus norvegicus Wistar albino (rat) assessed as serum VLDL level at 20 mg/kg, po administered via intragastric tube for 45 days (reference value: 55.2 +/-4.5 mg/dl). It counts as functional.
Data set [21] relates to Rattus norvegicus. Description: Nephroprotective activity in STZ-induced diabetic Rattus norvegicus Wistar albino (rat) assessed as reduction in glomerular expansion at 20 mg/kg, po administered via intragastric tube for 45 days using hematoxylin/eosin staining method. On the set-up: dose 20 mg/kg. The class given is functional, organism-based.
Data set [22] deals with Rattus norvegicus. Description: Hepatoprotective activity in STZ-induced diabetic Rattus norvegicus Wistar albino (rat) assessed as plasma AST level at 20 mg/kg, po administered via intragastric tube for 45 days (reference value: 85.5 +/-9.21 ug/dl). It counts as functional.
For data set [23], the system named is Rattus norvegicus. The experiment in a line: Hepatoprotective activity in STZ-induced diabetic Rattus norvegicus Wistar albino (rat) assessed as plasma ALT level at 20 mg/kg, po administered via intragastric tube for 45 days (reference value: 97.11 +/-10.3 ug/dl). It counts as functional.
Data set [24] relates to Rattus norvegicus. Description: Hepatoprotective activity in STZ-induced diabetic Rattus norvegicus Wistar albino (rat) assessed as plasma ALP level at 20 mg/kg, po administered via intragastric tube for 45 days (reference value: 91.1 +/-9.2 ug/dl). The class given is functional.
Data set [25] relates to Rattus norvegicus. The experiment in a line: Antidiabetic activity against STZ-induced diabetic Rattus norvegicus Wistar albino (rat) assessed as change in glycosylated hemoglobin of total hemoglobin at 20 mg/kg, po administered via intragastric tube for 45 days (reference value: 0.89 +/-0.03 %). The class given is functional.
Data set [26] deals with Rattus norvegicus. Description: Antidiabetic activity against STZ-induced diabetic Rattus norvegicus Wistar albino (rat) assessed as serum triglyceride level at 20 mg/kg, po administered via intragastric tube for 45 days (reference value: 65.5 +/-7.9 mg/dl). The class given is functional.
Data set [27] relates to Rattus norvegicus. Description: Antidiabetic activity against STZ-induced diabetic Rattus norvegicus Wistar albino (rat) assessed as serum cholesterol level at 20 mg/kg, po administered via intragastric tube for 45 days (reference value: 295.5 +/-17.1 mg/dl). It counts as functional.
For data set [28], the system named is Rattus norvegicus. Description: Nephroprotective activity in STZ-induced diabetic Rattus norvegicus Wistar albino (rat) assessed as change in serum creatinine level at 20 mg/kg, po administered via intragastric tube for 45 days (reference value: 2.1 +/-0.9 mg/dl). It counts as functional.
For data set [29], the system named is Rattus norvegicus. The experiment in a line: Antidiabetic activity against STZ-induced diabetic Rattus norvegicus Wistar albino (rat) assessed as change in hemoglobin at 20 mg/kg, po administered via intragastric tube for 45 days (reference value: 8.5 +/-0.9 mg/dl). The class given is functional.
For data set [30], the system named is Rattus norvegicus. Description: Nephroprotective activity in STZ-induced diabetic Rattus norvegicus Wistar albino (rat) assessed as reduction in enlargement of glomerulus at 20 mg/kg, po administered via intragastric tube for 45 days using hematoxylin/eosin staining method. On the set-up: dose 20 mg/kg. It counts as functional, organism-based.
Data set [31] has as its system Rattus norvegicus. Description: Antidiabetic activity against STZ-induced diabetic Rattus norvegicus Wistar albino (rat) assessed as serum LDL level at 20 mg/kg, po administered via intragastric tube for 45 days (reference value: 165.7 +/-14.35 mg/dl). The class given is functional.
The subject of data set [32] is Rattus norvegicus. Description: Hepatoprotective activity in STZ-induced diabetic Rattus norvegicus Wistar albino (rat) assessed as re-apperance of hepatic lobules at 20 mg/kg, po administered via intragastric tube for 45 days using hematoxylin/eosin staining method. The class given is functional, organism-based. On the set-up: dose 20 mg/kg. The settings on record: Liver.

The subject of data set [33] is Rattus norvegicus. Description: Hepatoprotective activity in STZ-induced diabetic Rattus norvegicus Wistar albino (rat) assessed as plasma ACP level at 20 mg/kg, po administered via intragastric tube for 45 days (reference value: 28.7 +/-2.61 ug/dl). It counts as functional.

The source made the active and inactive calls. The calls are words filed in the database; no cut-off is given here.

`Oc1cc(O)c2c(c1)O[C@H](c1ccc(O)c(O)c1)[C@@H](O)C2` [CATECHIN]: the Activity stood at 0.46% in [1]; 55.18 µg/dL in data set [2]; 1.98 mg/dL in [3]; 239.67 g in [4]; 14.98 mg/dL in [5]; 36.12 µg/dL in [6]. The Activity in [7] amounted to 68.65 mg/dL; in [8] it was 98.34 mg/dL; in [9] it was 8.98 g/dL; in data set [10], 50.87 µg/dL; in data set [11], 23.98 mg/dL; in [12], 9.52 µg/dL. Moreover, the Activity was found to be 18.18 mg/dL in [13] and 0.98 mg/dL in data set [14].
With `Oc1cc(O)c2c(c1)OC(c1ccc(O)c(O)c1)C(O)C2` (stereo not drawn) [CATECHIN], the Activity in data set [15] is 60.56 mg/dL; in [16], 6.58 g/dL; in [17], 0.99 mg/dL; in data set [18], 209.12 g; in [19] it was 29.98 mg/dL; in data set [20] it was 13.21 mg/dL. For the same compound, the Activity in data set [22] stood at 41.95 µg/dL; in data set [23], 59.71 µg/dL; in [24], 54.29 µg/dL; in [25], 0.57%; in data set [26], 20.81 mg/dL; in data set [27], 109.21 mg/dL. Further, the Activity in [28] is 1.78 mg/dL; in data set [29], 14.98 mg/dL; in [31], 91.28 mg/dL; in [33], 11.98 µg/dL. Also, the result in data set [21], in [30] and in data set [32] was Active.

For the origin of these results see ChEMBL document CHEMBL3045428, “Hypolipidemic, hepato-protective and renal damage recovering effects of catechin isolated from the methanolic extract of Cassia fistula stem bark on Streptozotocin-induced diabetic Wistar rats: a biochemical and morphological analysis” (Med Chem Res, 2012).
